Tests used:
Test in all cases: relative viability (nuclei count vs DMSO), 5 days (fraction); higher = more cells survive
[1] = test system: A-427
Summary of the method: (§1)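 Lung cancer cell lines were seeded in 1536-well plates and dosed by pin tool the next day, with either a single drug or a fixed anchor-drug dose combined with five library-drug doses (not always all listed) spaced in √10 steps. Five days later, one step fixed the cells and stained their nuclei (final 0.05% Triton X-100, 1% formaldehyde, 1 ug/ml Hoechst), and nuclei were counted on 4× images. Relative viability is the nuclei count in treated wells divided by the count in vehicle wells, and each value is the median of duplicate plates.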

[2] = test system: COR-L 105
Summary of the method: as §1

[3] = test system: H3255
Summary of the method: as §1

[4] = test system: HCC-44
Summary of the method: as §1

[5] = test system: HCC-827
Summary of the method: as §1

[6] = test system: LCLC-103H
Summary of the method: as §1

[7] = test system: LOU-NH91
Summary of the method: as §1

[8] = test system: LXF-289
Summary of the method: as §1

[9] = test system: NCI-H1792
Summary of the method: as §1

[10] = test system: NCI-H1793
Summary of the method: as §1

[11] = test system: NCI-H1915
Summary of the method: as §1

[12] = test system: NCI-H1944
Summary of the method: as §1

[13] = test system: NCI-H1975
Summary of the method: as §1

[14] = test system: NCI-H1993
Summary of the method: as §1

[15] = test system: NCI-H2023
Summary of the method: as §1

[16] = test system: NCI-H2087
Summary of the method: as §1

[17] = test system: NCI-H2170
Summary of the method: as §1

[18] = test system: NCI-H358
Summary of the method: as §1

[19] = test system: NCI-H520
Summary of the method: as §1

[20] = test system: SK-MES-1
Summary of the method: as §1

[21] = test system: SW 1573
Summary of the method: as §1

`CN1CCN(CCOc2cc(OC3CCOCC3)c3c(Nc4c(Cl)ccc5c4OCO5)ncnc3c2)CC1` [Saracatinib] + CS(=O)(=O)N1CCN(Cc2cc3nc(-c4cccc5[nH]ncc45)nc(N4CCOCC4)c3s2)CC1 [Pictilisib] (partner 1 µM) showed a relative viability ([1]; first compound 0.02 µM) of 0.652, a relative viability ([1]; first compound 0.2 µM) of 0.571 and a relative viability ([1]; first compound 0.6325 µM) of 0.767. For the same compound, the relative viability ([1]; first compound 2 µM) was 0.616, the relative viability ([2]; first compound 0.02 µM) was 0.445 and the relative viability ([2]; first compound 0.2 µM) was 0.331. It also gave a relative viability ([2]; first compound 0.6325 µM) of 0.361, a relative viability ([2]; first compound 2 µM) of 0.244 and a relative viability ([3]; first compound 0.02 µM) of 0.432. For the same compound, the relative viability ([3]; first compound 0.2 µM) was 0.391, the relative viability ([3]; first compound 0.6325 µM) was 0.352 and the relative viability ([3]; first compound 2 µM) was 0.156. The relative viability ([4]; first compound 0.02 µM) was 0.527, the relative viability ([4]; first compound 0.2 µM) was 0.598 and the relative viability ([4]; first compound 0.6325 µM) was 0.854. It also gave a relative viability ([4]; first compound 2 µM) of 0.442, a relative viability ([5]; first compound 0.02 µM) of 1.1 and a relative viability ([5]; first compound 0.2 µM) of 0.499. The relative viability ([5]; first compound 0.6325 µM) was 0.501, the relative viability ([5]; first compound 2 µM) was 0.323 and the relative viability ([6]; first compound 0.02 µM) was 0.547. It also gave a relative viability ([6]; first compound 0.2 µM) of 0.671, a relative viability ([6]; first compound 0.6325 µM) of 0.649 and a relative viability ([6]; first compound 2 µM) of 0.455. For the same compound, the relative viability ([7]; first compound 0.02 µM) was 0.535, the relative viability ([7]; first compound 0.2 µM) was 0.442 and the relative viability ([7]; first compound 0.6325 µM) was 0.502. For the same compound, the relative viability ([7]; first compound 2 µM) was 0.437, the relative viability ([8]; first compound 0.02 µM) was 0.715 and the relative viability ([8]; first compound 0.2 µM) was 0.731. The relative viability ([8]; first compound 0.6325 µM) was 0.8, the relative viability ([8]; first compound 2 µM) was 0.472 and the relative viability ([9]; first compound 0.02 µM) was 0.293. The relative viability ([9]; first compound 0.2 µM) was 0.239, the relative viability ([9]; first compound 0.6325 µM) was 0.302 and the relative viability ([9]; first compound 2 µM) was 0.263. It also gave a relative viability ([10]; first compound 0.02 µM) of 0.345, a relative viability ([10]; first compound 0.2 µM) of 0.213 and a relative viability ([10]; first compound 0.6325 µM) of 0.41. For the same compound, the relative viability ([10]; first compound 2 µM) was 0.408, the relative viability ([11]; first compound 0.02 µM) was 0.952 and the relative viability ([11]; first compound 0.2 µM) was 0.79. The relative viability ([11]; first compound 0.6325 µM) was 0.928, the relative viability ([11]; first compound 2 µM) was 0.767 and the relative viability ([12]; first compound 0.02 µM) was 0.335. The relative viability ([12]; first compound 0.6325 µM) was 0.288, the relative viability ([12]; first compound 2 µM) was 0.278 and the relative viability ([13]; first compound 0.02 µM) was 0.331. The relative viability ([13]; first compound 0.6325 µM) was 0.298, the relative viability ([13]; first compound 2 µM) was 0.174 and the relative viability ([14]; first compound 0.02 µM) was 0.655. It also gave a relative viability ([14]; first compound 0.2 µM) of 0.969, a relative viability ([14]; first compound 2 µM) of 0.652 and a relative viability ([15]; first compound 0.02 µM) of 0.267. It also gave a relative viability ([15]; first compound 0.2 µM) of 0.317, a relative viability ([15]; first compound 0.6325 µM) of 0.242 and a relative viability ([15]; first compound 2 µM) of 0.197. It also gave a relative viability ([16]; first compound 0.02 µM) of 0.963, a relative viability ([16]; first compound 0.2 µM) of 0.567 and a relative viability ([16]; first compound 0.6325 µM) of 1.06. For the same compound, the relative viability ([16]; first compound 2 µM) was 0.967, the relative viability ([17]; first compound 0.02 µM) was 0.355 and the relative viability ([17]; first compound 0.2 µM) was 0.233. The relative viability ([17]; first compound 0.6325 µM) was 0.234, the relative viability ([17]; first compound 2 µM) was 0.208 and the relative viability ([18]; first compound 0.02 µM) was 0.348. It also gave a relative viability ([18]; first compound 0.2 µM) of 0.226, a relative viability ([18]; first compound 0.6325 µM) of 0.284 and a relative viability ([18]; first compound 2 µM) of 0.257. It also gave a relative viability ([19]; first compound 0.02 µM) of 0.321, a relative viability ([19]; first compound 0.2 µM) of 0.263 and a relative viability ([19]; first compound 0.6325 µM) of 0.273. The relative viability ([19]; first compound 2 µM) was 0.228, the relative viability ([20]; first compound 0.02 µM) was 0.375 and the relative viability ([20]; first compound 0.2 µM) was 0.256. It also gave a relative viability ([20]; first compound 0.6325 µM) of 0.267, a relative viability ([20]; first compound 2 µM) of 0.183 and a relative viability ([21]; first compound 0.02 µM) of 0.47. For the same compound, the relative viability ([21]; first compound 0.2 µM) was 0.451, the relative viability ([21]; first compound 0.6325 µM) was 0.456 and the relative viability ([21]; first compound 2 µM) was 0.295.

`CN1CCN(CCOc2cc(OC3CCOCC3)c3c(Nc4c(Cl)ccc5c4OCO5)ncnc3c2)CC1` [Saracatinib] + Cc1nc(NC(=O)N2CCC[C@H]2C(N)=O)sc1-c1ccnc(C(C)(C)C(F)(F)F)c1 [Alpelisib] (partner 2 µM) showed a relative viability ([1]; first compound 0.02 µM) of 1.09, a relative viability ([1]; first compound 0.2 µM) of 0.916 and a relative viability ([1]; first compound 0.6325 µM) of 1.07. For the same compound, the relative viability ([1]; first compound 2 µM) was 1.01, the relative viability ([2]; first compound 0.02 µM) was 0.91 and the relative viability ([2]; first compound 0.2 µM) was 0.96. For the same compound, the relative viability ([2]; first compound 0.6325 µM) was 0.7, the relative viability ([2]; first compound 2 µM) was 0.416 and the relative viability ([3]; first compound 0.02 µM) was 0.624. For the same compound, the relative viability ([3]; first compound 0.2 µM) was 0.556, the relative viability ([3]; first compound 0.6325 µM) was 0.366 and the relative viability ([3]; first compound 2 µM) was 0.166. It also gave a relative viability ([4]; first compound 0.02 µM) of 0.859, a relative viability ([4]; first compound 0.2 µM) of 0.658 and a relative viability ([4]; first compound 0.6325 µM) of 0.874. The relative viability ([4]; first compound 2 µM) was 0.862, the relative viability ([5]; first compound 0.02 µM) was 0.922 and the relative viability ([5]; first compound 0.2 µM) was 0.524. The relative viability ([5]; first compound 0.6325 µM) was 0.195, the relative viability ([5]; first compound 2 µM) was 0.157 and the relative viability ([6]; first compound 0.02 µM) was 0.972. For the same compound, the relative viability ([6]; first compound 0.2 µM) was 0.831, the relative viability ([6]; first compound 0.6325 µM) was 0.899 and the relative viability ([6]; first compound 2 µM) was 0.893. The relative viability ([7]; first compound 0.02 µM) was 0.683, the relative viability ([7]; first compound 0.2 µM) was 0.5 and the relative viability ([7]; first compound 0.6325 µM) was 0.554. For the same compound, the relative viability ([7]; first compound 2 µM) was 0.449, the relative viability ([8]; first compound 0.02 µM) was 1.03 and the relative viability ([8]; first compound 0.2 µM) was 0.908. The relative viability ([8]; first compound 0.6325 µM) was 1.02, the relative viability ([8]; first compound 2 µM) was 0.985 and the relative viability ([9]; first compound 0.02 µM) was 0.706. For the same compound, the relative viability ([9]; first compound 0.2 µM) was 0.492, the relative viability ([9]; first compound 0.6325 µM) was 0.929 and the relative viability ([9]; first compound 2 µM) was 0.608. For the same compound, the relative viability ([10]; first compound 0.02 µM) was 0.722, the relative viability ([10]; first compound 0.2 µM) was 0.75 and the relative viability ([10]; first compound 0.6325 µM) was 0.793. It also gave a relative viability ([10]; first compound 2 µM) of 0.74, a relative viability ([11]; first compound 0.02 µM) of 1.04 and a relative viability ([11]; first compound 0.2 µM) of 0.552. For the same compound, the relative viability ([11]; first compound 0.6325 µM) was 1.07, the relative viability ([11]; first compound 2 µM) was 1.01 and the relative viability ([12]; first compound 0.02 µM) was 0.847. The relative viability ([12]; first compound 0.6325 µM) was 0.808, the relative viability ([12]; first compound 2 µM) was 0.524 and the relative viability ([13]; first compound 0.02 µM) was 0.671. The relative viability ([13]; first compound 0.6325 µM) was 0.585, the relative viability ([13]; first compound 2 µM) was 0.367 and the relative viability ([14]; first compound 0.02 µM) was 0.68. For the same compound, the relative viability ([14]; first compound 0.2 µM) was 0.531, the relative viability ([14]; first compound 2 µM) was 0.656 and the relative viability ([15]; first compound 0.02 µM) was 0.62. The relative viability ([15]; first compound 0.2 µM) was 0.409, the relative viability ([15]; first compound 0.6325 µM) was 0.485 and the relative viability ([15]; first compound 2 µM) was 0.364. For the same compound, the relative viability ([16]; first compound 0.02 µM) was 1.13, the relative viability ([16]; first compound 0.2 µM) was 0.934 and the relative viability ([16]; first compound 0.6325 µM) was 1.41. It also gave a relative viability ([16]; first compound 2 µM) of 1.04, a relative viability ([17]; first compound 0.02 µM) of 0.731 and a relative viability ([17]; first compound 0.2 µM) of 0.749. For the same compound, the relative viability ([17]; first compound 0.6325 µM) was 0.752, the relative viability ([17]; first compound 2 µM) was 0.464 and the relative viability ([18]; first compound 0.02 µM) was 0.839. The relative viability ([18]; first compound 0.2 µM) was 0.881, the relative viability ([18]; first compound 0.6325 µM) was 0.514 and the relative viability ([18]; first compound 2 µM) was 0.448. For the same compound, the relative viability ([19]; first compound 0.02 µM) was 0.901, the relative viability ([19]; first compound 0.2 µM) was 0.779 and the relative viability ([19]; first compound 0.6325 µM) was 0.545. The relative viability ([19]; first compound 2 µM) was 0.493, the relative viability ([20]; first compound 0.02 µM) was 0.713 and the relative viability ([20]; first compound 0.2 µM) was 0.77. The relative viability ([20]; first compound 0.6325 µM) was 0.76, the relative viability ([20]; first compound 2 µM) was 0.644 and the relative viability ([21]; first compound 0.02 µM) was 0.83. It also gave a relative viability ([21]; first compound 0.2 µM) of 0.689, a relative viability ([21]; first compound 0.6325 µM) of 0.833 and a relative viability ([21]; first compound 2 µM) of 0.51.

From the supplement of paper PMC10307832
